Assay results taken from ChEMBL document CHEMBL1125073, “Antitubulin effects of derivatives of 3-demethylthiocolchicine, methylthio ethers of natural colchicinoids, and thioketones derived from thiocolchicine. Comparison with colchicinoids” (J Med Chem, 1990).

Tests used:
L1210 = assay: cells; conditions: Mus musculus
Description: In vitro cytotoxicity against L1210 (murine leukemia) cells.

Mus musculus = organism: Mus musculus; conditions: in vivo, im
Description: Acute toxicity after intramuscular injection in mice.

Row | Structure (SMILES) | IC50 (L1210) [nM] | Toxicity (Mus musculus) [mg/kg]
1 | COc1c2c(cc3c1-c1ccc(SC)c(=O)cc1[C@@H](NC(C)=O)CC3)OCO2 [THIOCORNIGERINE] | 10 | 
2 | COc1c2c(cc3c1-c1ccc(OC)c(=O)cc1[C@@H](NC(C)=O)CC3)OCO2 |  | 9.7
3 | COc1cc2c(c(OC)c1OC)-c1ccc(SC)c(=S)cc1[C@@H](NC(C)=O)CC2 | 30 | 
4 | COc1cc2c(c(OC)c1OC)-c1ccc(SC)c(=S)cc1[C@@H](/N=C(/C)S)CC2 | 40 | 
